# Results reported in patent US12371454B2, “Cyclic peptide compound having Kras inhibitory action” (priority 2019, dated 2025).
# Starred links: 1 amine or outer side, 2 acyl side, 3 side chain; linkers in the order of their positions; H or OH if unused. Positions of bridges follow the written chain, without caps; N, C: chain ends. Non-standard residues stand in square brackets, D forms with d. Residues, ends and D or L forms follow the SMILES beside them. *: point of attachment. hPhe(3,5-F2-4-CF3) = N[C@@H](CCc1cc(F)c(C(F)(F)F)c(F)c1)C(=O)O; hPhe(3-Cl-4-CF3) = N[C@@H](CCc1ccc(C(F)(F)F)c(Cl)c1)C(=O)O; hPhe(3-F,4-CF3) = N[C@@H](CCc1ccc(C(F)(F)F)c(F)c1)C(=O)O; NMePhe(4-CF3) = CN[C@@H](Cc1ccc(C(F)(F)F)cc1)C(=O)O; NMePhe(4-I) = CN[C@@H](Cc1ccc(I)cc1)C(=O)O; NMedβ3hAla = C[C@H](CC(=O)[*:2])N(C)[*:1]; Pro(4,4-F2) = O=C(O)[C@@H]1CC(F)(F)CN1; oXylylene = c1ccc(C[*:2])c(C[*:1])c1; NMeCha = CN[C@@H](CC1CCCCC1)C(=O)O; cisHyp = O=C(O)[C@@H]1C[C@H](O)CN1; NEtLeu = CCN[C@@H](CC(C)C)C(=O)O; NMeChg = CN[C@H](C(=O)O)C1CCCCC1; NMeI = CC[C@H](C)[C@H](NC)C(=O)O; NMeD = CN[C@@H](CC(=O)O)C(=O)O; NMeHpra = C#CCC[C@H](NC)C(=O)O; NMeL = CN[C@@H](CC(C)C)C(=O)O; NMeNva = CCC[C@H](NC)C(=O)O; NMeV = CN[C@H](C(=O)O)C(C)C; Trifluoroethyl = FC(F)(F)C*; d(β3hA) = C[C@@H](N)CC(=O)O; NMeS = CN[C@@H](CO)C(=O)O; NMeA = CN[C@@H](C)C(=O)O; Piperidide = C1CCN(*)CC1; Pyrrolidide = C1CCN(*)C1; Ac5c = NC1(C(=O)O)CCCC1; Aze = O=C(O)[C@@H]1CCN1; Sar = CNCC(=O)O
# System: Human pancreatic cancer cell line AsPC-1
# Test: Measurement of AsPC-1 cell growth inhibition (AsPC-1 CGI)
# Assay type: cell-based
# Settings: 96 h
# Description: Measurement of AsPC-1 Cell Growth Inhibition (AsPC-1 CGI)
# Test compounds were serially diluted with dimethyl sulfoxide, and 200 nL was then dispensed to a U-bottom 96-well plate using Labcyte Echo. Human pancreatic cancer cell line AsPC-1 was suspended in RPMI-1640 medium supplemented with 15% fetal bovine serum to prepare a cell suspension at 1000 cells/100 μL. The cell suspension was dispensed to a plate containing a test compound at 100 μL per well and incubated at 37° C. in a 5% carbon dioxide gas incubator. 96 hours later, 80 μL of CellTiter-Glo (Promega) was added to each well and […] was measured.
row,Compound,IC50
1,"CC[C@H](C)[C@@H]1NC(=O)[C@H](CC(C)C)N(C)C(=O)C[C@@H](C(=O)N2CCCCC2)N(C)C(=O)[C@H](CC(C)C)N(C)C(=O)C2(CCCC2)NC(=O)[C@@H]2C[C@H](OCc3ccccc3C)CN2C(=O)[C@H](CCc2ccc(C(F)(F)F)c(F)c2)NC(=O)CN(C)C(=O)[C@H](CC2CCCCC2)N(C)C(=O)CN(C)C(=O)CN(C)C1=O [Compound 2137] ([NMeL]I[Sar][Sar][NMeCha][Sar][hPhe(3-F,4-CF3)][cisHyp](oXylylene)[Ac5c][NMeL][NMeD]-Piperidide; lactam N-11)",> 500 nM
2,CC[C@H](C)[C@@H]1NC(=O)[C@H](CC(C)C)N(C)C(=O)C[C@@H](C(=O)N2CCCCC2)N(C)C(=O)[C@H](C(C)C)N(C)C(=O)C2(CCCC2)NC(=O)[C@@H]2CCCN2C(=O)[C@H](CCc2ccc(C(F)(F)F)c(Cl)c2)NC(=O)CN(C)C(=O)[C@H](CC2CCCCC2)N(C)C(=O)[C@@H]2CCN2C(=O)[C@H](C)NC1=O [Compound 1334] ([NMeL]IA[Aze][NMeCha][Sar][hPhe(3-Cl-4-CF3)]P[Ac5c][NMeV][NMeD]-Piperidide; lactam N-11),100 to 500 nM
3,"CC[C@H](C)[C@@H]1NC(=O)[C@H](CC(C)C)N(C)C(=O)C[C@@H](C)N(C)C(=O)[C@H](C2CCCCC2)N(C)C(=O)C2(CCCC2)NC(=O)[C@@H]2CC(F)(F)CN2C(=O)[C@H](CCc2cc(F)c(C(F)(F)F)c(F)c2)NC(=O)CN(C)C(=O)[C@H](Cc2ccc(C(F)(F)F)cc2)N(C)C(=O)[C@@H]2CCN2C(=O)[C@H](C)N(C)C1=O [Compound 606] (cyclo([Ac5c][NMeChg][NMedβ3hAla][NMeL]I[NMeA][Aze][NMePhe(4-CF3)][Sar][hPhe(3,5-F2-4-CF3)][Pro(4,4-F2)]))",100 to 500 nM
4,C#CCC[C@H]1C(=O)N[C@@H]([C@@H](C)CC)C(=O)N(C)[C@@H](C)C(=O)N2CC[C@H]2C(=O)N(C)[C@@H](Cc2ccc(I)cc2)C(=O)N(C)CC(=O)N[C@@H](CCc2ccc(C(F)(F)F)c(Cl)c2)C(=O)N2CCC[C@H]2C(=O)NC2(CCCC2)C(=O)N(C)[C@@H](C2CCCCC2)C(=O)N[C@H](C)CC(=O)N1C [Compound 971] (cyclo([Ac5c][NMeChg][d(β3hA)][NMeHpra]I[NMeA][Aze][NMePhe(4-I)][Sar][hPhe(3-Cl-4-CF3)]P)),100 to 500 nM
5,CC[C@H](C)[C@@H]1NC(=O)[C@H](COCC(F)(F)F)N(C)C(=O)C[C@@H](C(=O)N2CCCCC2)N(C)C(=O)[C@H](C(C)C)N(C)C(=O)C2(CCCC2)NC(=O)[C@@H]2CCCN2C(=O)[C@H](CCc2ccc(C(F)(F)F)c(Cl)c2)NC(=O)CN(C)C(=O)[C@H](CC2CCCCC2)N(C)C(=O)[C@@H]2CCN2C(=O)[C@H](C)N(C)C1=O [Compound 387] ([NMeS](Trifluoroethyl)I[NMeA][Aze][NMeCha][Sar][hPhe(3-Cl-4-CF3)]P[Ac5c][NMeV][NMeD]-Piperidide; lactam N-11),100 to 500 nM
6,CCC[C@H]1C(=O)N(C)[C@H](C(=O)N2CCCCC2)CC(=O)N(C)[C@@H](CC(C)C)C(=O)N[C@@H]([C@@H](C)CC)C(=O)N(C)[C@@H](C)C(=O)N2CC[C@H]2C(=O)N(C)[C@@H](CC2CCCCC2)C(=O)N(C)CC(=O)N[C@@H](CCc2ccc(C(F)(F)F)c(Cl)c2)C(=O)N2CCC[C@H]2C(=O)NC2(CCCC2)C(=O)N1C [Compound 995] ([NMeL]I[NMeA][Aze][NMeCha][Sar][hPhe(3-Cl-4-CF3)]P[Ac5c][NMeNva][NMeD]-Piperidide; lactam N-11),100 to 500 nM
7,CC[C@H](C)[C@@H]1NC(=O)[C@H](CC(C)C)N(C)C(=O)C[C@@H](C(=O)N2CCCCC2)N(C)C(=O)[C@H](CC(C)C)N(C)C(=O)C2(CCCC2)NC(=O)[C@@H]2CCCN2C(=O)[C@H](CCc2ccc(C(F)(F)F)c(Cl)c2)NC(=O)CN(C)C(=O)[C@H](CC2CCCCC2)N(C)C(=O)[C@@H]2CCN2C(=O)[C@H](C)N(C)C1=O [Compound 1657] ([NMeL]I[NMeA][Aze][NMeCha][Sar][hPhe(3-Cl-4-CF3)]P[Ac5c][NMeL][NMeD]-Piperidide; lactam N-11),100 to 500 nM
8,CC[C@H](C)[C@@H]1NC(=O)[C@H](CC2CCCCC2)N(C)C(=O)C[C@@H](C(=O)N2CCCCC2)N(C)C(=O)[C@H](C(C)C)N(C)C(=O)C2(CCCC2)NC(=O)[C@@H]2CCCN2C(=O)[C@H](CCc2ccc(C(F)(F)F)c(Cl)c2)NC(=O)CN(C)C(=O)[C@H](CC2CCCCC2)N(C)C(=O)[C@@H]2CCN2C(=O)[C@H](C)N(C)C1=O [Compound 572] ([NMeCha]I[NMeA][Aze][NMeCha][Sar][hPhe(3-Cl-4-CF3)]P[Ac5c][NMeV][NMeD]-Piperidide; lactam N-11),100 to 500 nM
9,CC[C@H](C)[C@@H]1NC(=O)[C@H](CC(C)C)N(CC)C(=O)C[C@@H](C(=O)N2CCCC2)N(C)C(=O)[C@H]([C@@H](C)CC)N(C)C(=O)C2(CCCC2)NC(=O)[C@@H]2CCCN2C(=O)[C@H](CCc2ccc(C(F)(F)F)c(Cl)c2)NC(=O)CN(C)C(=O)[C@H](Cc2ccc(C(F)(F)F)cc2)N(C)C(=O)[C@@H]2CCN2C(=O)[C@H](C)NC1=O [Compound 1146] ([NEtLeu]IA[Aze][NMePhe(4-CF3)][Sar][hPhe(3-Cl-4-CF3)]P[Ac5c][NMeI][NMeD]-Pyrrolidide; lactam N-11),20 to 50 nM
